# Test results as given in patent publication US6452050B1, “Synthesis and use of α-ketoamide derivatives and arrays” (ArQule, Inc., priority 1997, dated 2002).
# Biological target: T1, Cathepsin B (EC 3.4.22.1, from human liver) (Homo sapiens, UniProt P07858)
# T1 construct: Cathepsin B (EC 3.4.22.1, from human liver) was purchased from Sigma Chemical Company; purchased Sigma Chemical Company (St. Louis, Mo.); host or cells: human liver
# Experiment: High-throughput fluorometric cathepsin B assay (Z-F-R-AMC substrate)
# Type: biochemical
# Settings: cruzain versus cathepsin B IC50
# Method: A fluorometric high throughput cathepsin B assay for detecting inhibitory activity was developed in 96-well microtiter plate format. Benzyloxy-Phe-Arg-AMC (Z-F-R-AMC; Molecular Probes, Inc., Eugene, Oreg.) was the substrate used in the assay (Km=150 μM). Cathepsin B (EC 3.4.22.1, from human liver) was purchased from Sigma Chemical Company (St. Louis, Mo.) in a stock solution containing 25 μg of the protein in 25 μl buffer (i.e., 20 mM sodium acetate, pH 5.0, and 1 mM EDTA).
# The bioassay of the compounds was performed on a Sagian/Beckman Integrated robotic system (Beckman, Fullerton, Calif.). Inhibition of enzyme activity was measured via fluorescent detection. Fluorescence readings were taken at an excitation wavelength of […] (λmax=350 nm) and an emission wavelength of 430 nm (λmax=430 nm) on a BMG FluoStar (BMG, Durham, N.C.). […]
# The reaction was initiated by the addition of the cathepsin B (0.46 ng/ml) in the assay buffer containing dithiothreitol (giving a final concentration of 1.5 mM). […] The activity was obtained by observing the end point absorbance reading after quenching. The percentage of inhibition was calculated by dividing the absorbance measured in the presence of inhibitor plus enzyme (inhibited signal) by the absorbance measured in the presence of enzyme alone (full signal) minus the absorbance obtained in the absence of both inhibitors and the enzyme (background). […]
smiles,measurement,value
O=C(Nc1ccc(CNC(=O)C(=O)c2ccc(-c3ccccc3)cc2)cc1)Nc1ccc(-c2ccccc2)cc1 [Compound 4],selectivity over cathepsin B,greater than 20 fold
